Consider six compounds from US4731109A, “Herbicidal 2-haloacetanilides” (Monsanto Company, priority 1982, dated 1988).

Like-named read-outs stand apart in the source and are kept apart here.

Holding throughout (format): in vivo
Experiment [1] concerns common ragweed. Description: Greenhouse pre-emergence GR15/GR85 selectivity test. The following applies: Table XV; for selectivity factor (GR15/GR85): in rape. The procedure, abridged:
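Pre-emergence soil-incorporation test: seeded pans were covered with topsoil mixed with active ingredient (in solvent or as wettable powder), overhead-irrigated (0.64 cm) or not, then subirrigated. Plants were scored about 2-3 weeks after treatment. GR15/GR85 rates are in kg/ha, and selectivity factor is crop GR15 divided by weed GR85.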

The subject of experiment [2] is Sorghum. Description: Field pre-emergence selectivity test. The following applies: 1008 h, 6 weeks, read-out: Percent Inhibition; for inhibition at 560 g/ha: 0.56 Kg/Ha; for inhibition at 1120 g/ha: 1.12 Kg/Ha; for inhibition at 2240 g/ha: 2.24 Kg/Ha; for inhibition at 4480 g/ha: 4.48 Kg/Ha. As for the experimental part: (§1) The compound of Examples 1 and 2 was also tested in the field to determine its pre-emergence selectivity against foxtail (spp), barnyardgrass, wild proso millet, smartweed, lambsquarters and pigweed in a plurality of crops; the data (representing three replicate runs) are shown in Table VII for both surface application (S.A.) and soil incorporation (PPI, i.e., preplant incorporation) of the herbicide. The seeds were planted in a fine seedbed of silt loam of intermediate moisture. The seeds were planted at a depth of two inches (5.08 cm). First rainfall (0.2"; 0.51 cm) occurred the day following treatment, the second rain (0.25"; […]) two days after treatment; cumulative rainfall 22 days after treatment was 1.8" (4.57 cm). Observations were made 6 weeks after treatment.

The subject of experiment [3] is Smartweed. The experiment can be described thus: Field pre-emergence selectivity test. As to conditions: 1008 h, 6 weeks, read-out: Percent Inhibition; for inhibition at 1120 g/ha: 1.12 Kg/Ha; for inhibition at 2240 g/ha: 2.24 Kg/Ha. Here is the method:
as §1

Experiment [4] relates to soybeans. Description: Field pre-emergence selectivity test. The following applies: Glycine max, 1008 h, 6 weeks, read-out: Percent Inhibition; for inhibition at 560 g/ha: 0.56 Kg/Ha; for inhibition at 1120 g/ha: 1.12 Kg/Ha; for inhibition at 2240 g/ha: 2.24 Kg/Ha; for inhibition at 4480 g/ha: 4.48 Kg/Ha. As for the experimental part: as §1
The test system of experiment [5] is foxtail (spp). The experiment can be described thus: Field pre-emergence selectivity test. As to conditions: Setaria, 1008 h, 6 weeks, read-out: Percent Inhibition; for inhibition at 560 g/ha: 0.56 Kg/Ha; for inhibition at 1120 g/ha: 1.12 Kg/Ha; for inhibition at 2240 g/ha: 2.24 Kg/Ha; for inhibition at 4480 g/ha: 4.48 Kg/Ha. Here is the method:
as §1

Experiment [6] concerns Field Corn. Description: Field pre-emergence selectivity test. The following applies: Zea mays, 1008 h, 6 weeks, read-out: Percent Inhibition; for inhibition at 560 g/ha: 0.56 Kg/Ha; for inhibition at 1120 g/ha: 1.12 Kg/Ha; for inhibition at 2240 g/ha: 2.24 Kg/Ha; for inhibition at 4480 g/ha: 4.48 Kg/Ha. As for the experimental part:
as §1

Experiment [7] deals with pigweed. The experiment can be described thus: Field pre-emergence selectivity test. As to conditions: Amaranthus retroflexus, 1008 h, 6 weeks, read-out: Percent Inhibition; for inhibition at 560 g/ha: 0.56 Kg/Ha; for inhibition at 1120 g/ha: 1.12 Kg/Ha. As for the experimental part:
as §1

Experiment [8] concerns Barnyardgrass. The experiment can be described thus: Field pre-emergence selectivity test. As to conditions: Echinochloa crus-galli, 1008 h, 6 weeks, read-out: Percent Inhibition; for inhibition at 560 g/ha: 0.56 Kg/Ha; for inhibition at 1120 g/ha: 1.12 Kg/Ha; for inhibition at 2240 g/ha: 2.24 Kg/Ha; for inhibition at 4480 g/ha: 4.48 Kg/Ha. As for the experimental part: as §1

The test system of experiment [9] is Bush Bean. The experiment can be described thus: Field pre-emergence selectivity test. As to conditions: 1008 h, 6 weeks, read-out: Percent Inhibition; for inhibition at 560 g/ha: 0.56 Kg/Ha; for inhibition at 1120 g/ha: 1.12 Kg/Ha; for inhibition at 2240 g/ha: 2.24 Kg/Ha; for inhibition at 4480 g/ha: 4.48 Kg/Ha. As for the experimental part:
as §1

For experiment [10], the system named is rape. The experiment can be described thus: Field pre-emergence selectivity test. As to conditions: 1008 h, 6 weeks, read-out: Percent Inhibition; for inhibition at 560 g/ha: 0.56 Kg/Ha; for inhibition at 1120 g/ha: 1.12 Kg/Ha; for inhibition at 2240 g/ha: 2.24 Kg/Ha; for inhibition at 4480 g/ha: 4.48 Kg/Ha. Here is the method:
as §1

As to `CCCOCN(C(=O)CCl)c1c(C)cccc1C(F)(F)F` [Example 3, N--(n-propoxymethyl)-2'-trifluoromethyl-6'-methyl-2-chloroacetanilide], in [1], the “GR85 Rate” value turned out to be 0.49 Kg/Ha and the “selectivity factor (GR15/GR85)” value came out at 1.8.
In the case of `Cc1cccc(C(F)(F)F)c1N(COC(C)C)C(=O)CCl` [Example 4, N--(isopropoxymethyl)-2'-trifluoromethyl-6'-methyl-2-chloroacetanilide], in [1], the “GR85 Rate” value turned out to be 1.03 Kg/Ha and the “selectivity factor (GR15/GR85)” value was over 1.1.
`CC(C)OCN(C(=O)CCl)c1ccccc1C(F)(F)F` [Example 2, N--(isopropoxymethyl)-2'-trifluoromethyl-2-chloroacetanilide]: the inhibition at 560 g/ha was determined as 7% in [2] (P.P.I.); 0% in experiment [2] (S.A.); 0% in experiment [3] (S.A., 0.56 Kg/Ha); 3% in [4] (P.P.I.); 0% in [4] (S.A.); 77% in experiment [5] (P.P.I.). The inhibition at 560 g/ha in experiment [5] (S.A.) was found to be 50%; in [6] (P.P.I.) it was 0%; in experiment [6] (S.A.), 0%; in experiment [7] (P.P.I.), 33%; in experiment [7] (S.A.), 0%; in [8] (P.P.I.), 85%. Moreover, the inhibition at 560 g/ha turned out to be 50% in [8] (S.A.); 5% in [9] (P.P.I.); 0% in experiment [9] (S.A.); 0% in experiment [10] (P.P.I.); 0% in experiment [10] (S.A.). Moreover, the inhibition at 1120 g/ha worked out at 27% in [2] (P.P.I.); 0% in experiment [2] (S.A.); 75% in [3] (P.P.I.); 10% in experiment [3] (S.A.); 0% in experiment [4] (P.P.I.); 0% in experiment [4] (S.A.). Besides, the inhibition at 1120 g/ha in [5] (P.P.I.) worked out at 78%; in [5] (S.A.), 85%; in experiment [6] (P.P.I.) it was 0%; in [6] (S.A.), 0%; in [7] (P.P.I.), 85%; in experiment [7] (S.A.) it was 0%. Moreover, the inhibition at 1120 g/ha in [8] (P.P.I.) turned out to be 88%; in experiment [8] (S.A.), 87%; in [9] (P.P.I.), 13%; in [9] (S.A.), 0%; in [10] (P.P.I.), 15%; in experiment [10] (S.A.), 5%. Also, the inhibition at 2240 g/ha turned out to be 38% in experiment [2] (P.P.I.); 5% in experiment [2] (S.A.); 95% in experiment [3] (P.P.I.); 20% in experiment [3] (S.A.); 13% in experiment [4] (P.P.I.); 3% in experiment [4] (S.A.). Also, the inhibition at 2240 g/ha in experiment [5] (P.P.I.) amounted to 87%; in experiment [5] (S.A.), 90%; in experiment [6] (P.P.I.) it was 0%; in experiment [6] (S.A.) it was 0%; in experiment [7] (P.P.I., 2.24 Kg/Ha), 85%; in experiment [8] (P.P.I.), 95%. For the same compound, the inhibition at 2240 g/ha in [8] (S.A.) worked out at 90%; in [9] (P.P.I.), 22%; in experiment [9] (S.A.), 5%; in [10] (P.P.I.), 27%; in experiment [10] (S.A.), 0%. For the same compound, the inhibition at 4480 g/ha in experiment [2] (P.P.I.) was 90%; in experiment [2] (S.A.) it was 33%; in experiment [3] (S.A., 4.48 Kg/Ha), 63%; in [4] (P.P.I.) it was 28%; in experiment [4] (S.A.) it was 10%; in [5] (P.P.I.), 100%. Further, the inhibition at 4480 g/ha in experiment [5] (S.A.) was found to be 97%; in [6] (P.P.I.) it was 13%; in experiment [6] (S.A.) it was 10%; in [7] (P.P.I., 4.48 Kg/Ha), 88%; in experiment [8] (P.P.I.) it was 100%; in experiment [8] (S.A.) it was 97%. Moreover, the inhibition at 4480 g/ha in experiment [9] (P.P.I.) was found to be 63%; in [9] (S.A.) it was 33%; in experiment [10] (P.P.I.) it was 35%; in experiment [10] (S.A.), 30%.
Regarding `Cc1cccc(C(F)(F)F)c1N(COCC(C)C)C(=O)CCl` [Example 5, N--(isobutoxymethyl)-2'-trifluoromethyl-6'-methyl-2-chloroacetanilide], in experiment [1], the “GR85 Rate” value came out at 0.98 Kg/Ha and the “selectivity factor (GR15/GR85)” value is listed as over 1.1.
For the compound `CCCOCN(C(=O)CCl)c1c(CC)cccc1C(F)(F)F` [Example 10, N--(n-propoxymethyl)-2'-trifluoromethyl-6'-ethyl-2-chloroacetanilide], the “GR85 Rate” value in [1] is listed as over 1.12 Kg/Ha.
On to `CCOCN(C(=O)CCl)c1c(CC)cccc1C(F)(F)F` [Example 9, N--(ethoxymethyl)-2'-trifluoromethyl-6'-ethyl-2-chloroacetanilide], for which, in [1], the “GR85 Rate” value is over 1.12 Kg/Ha and the “selectivity factor (GR15/GR85)” value is “NS (non-selective)”.

Broadly, the inhibition is the change of the read-out against control, counted positive when it falls.
